Data: the supplement of paper PMC8671470

Key:
Test in all cases: cell viability (% survival relative to DMSO control); higher = less cytotoxic
Conditions in all cases: 72 h
[1] = system: myeloid leukemia patient primary cells Pat.15
Procedure, shortened: (§1)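 Seventy compounds were pre-printed on 384-well plates at five tenfold concentrations between 1 and 10,000 nM, in duplicate. Thawed mononuclear cells purified by Ficoll from AML or CML patients were added at 10,000 cells/well in RPMI 1640 with 10% FBS for 72 h. Viability by CellTiter-Glo was normalised to DMSO and 10 μM proteasome-inhibitor wells. Where stated, area under the curve was taken from log-logistic fits made with the drc and PharmacoGx R packages, each fit having four parameters.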

[2] = system: myeloid leukemia patient primary cells Pat.10
Procedure, shortened: as §1

[3] = system: myeloid leukemia patient primary cells Pat.2
Procedure, shortened: as §1

[4] = system: myeloid leukemia patient primary cells Pat.14
Procedure, shortened: as §1

Structure (SMILES) | cell viability ([1]; 1 nM) [%] | cell viability ([1]; 10 nM) [%] | cell viability ([1]; 100 nM) [%] | cell viability ([1]; 1000 nM) [%] | cell viability ([1]; 10000 nM) [%] | cell viability ([2]; 1 nM) [%] | cell viability ([2]; 10 nM) [%] | cell viability ([2]; 100 nM) [%] | cell viability ([2]; 1000 nM) [%] | cell viability ([2]; 10000 nM) [%] | cell viability ([3]; 1 nM) [%] | cell viability ([3]; 10 nM) [%] | cell viability ([3]; 100 nM) [%] | cell viability ([3]; 1000 nM) [%] | cell viability ([3]; 10000 nM) [%] | cell viability ([4]; 1 nM) [%] | cell viability ([4]; 10 nM) [%] | cell viability ([4]; 100 nM) [%] | cell viability ([4]; 1000 nM) [%] | cell viability ([4]; 10000 nM) [%]
CC12CCC(O)CC1CCC1C2CCC2(C)C(C3=CC(=O)OC3)CCC12O (stereo not given) [Digitoxigenin] | > 100 | 92.9 | 97.5 | 8.87 | 2.72 | 71.9 | 52.2 | > 100 | 96.8 | > 100 | 94.1 | 95.3 | 88.5 | 42.4 | 6.42 | 95 | 66.5 | 78.4 | 22.2 | 18.3
Cc1noc2c1-c1ccccc1C(c1ccc(Cl)cc1)=N[C@H]2CC(N)=O [CPI-0610] | 95.1 | 94.6 | 76.1 | 3.36 | 1.08 | 68.5 | 91.9 | 29.6 | 27.8 | 39.2 | 99.4 | 97.6 | 88.9 | 58.5 | 40.3 | > 100 | 84.9 | 86.4 | 60.3 | 60.7
Sc1ncnc2nc[nH]c12 [6-mercaptopurine] | 99.2 | > 100 | 98.5 | 94.3 | 98.3 | 59 | 63.4 | 70.1 | 72.4 | 56.6 | 95.6 | > 100 | 94 | 99.9 | > 100 | 92.6 | > 100 | 74.8 | 97.9 | 88
C[C@]12O[C@H](C[C@]1(O)CO)n1c3ccccc3c3c4c(c5c6ccccc6n2c5c31)CNC4=O [Lestaurtinib] | 97.1 | 61.3 | 43.7 | 2.83 | 0.259 | 64.5 | 34.5 | 45.6 | 73.9 | 9.05 | 97.1 | 79 | 74.7 | 51.1 | 11.5 | 80.7 | 43.5 | 77.9 | 40.6 | 4.31
Nc1ccn([C@@H]2O[C@H](CO)[C@@H](O)[C@@H]2O)c(=O)n1 [Cytarabine] | 94.5 | 86.4 | 99.6 | 81 | 32.8 | 89.9 | 45.1 | 67 | 54.1 | 13.9 | 99 | 88.1 | 95.9 | 89.1 | 37.3 | 85.1 | 65.1 | 78.1 | 62.9 | 15.8
COc1c(C)c2c(c(O)c1C/C=C(\C)CCC(=O)O)C(=O)OC2 [Mycophenolic acid] | 91.6 | 94.3 | 86.7 | > 100 | 84.3 | 49.6 | 77.5 | 79.2 | 69.8 | 53.1 | 97.4 | 99.8 | 82.1 | > 100 | 85.6 | 75.3 | 83.7 | 65.6 | 95.5 | 93.4
CCN(CC)CCN(Cc1ccc(-c2ccc(C(F)(F)F)cc2)cc1)C(=O)Cn1c(SCc2ccc(F)cc2)nc(=O)c2c1CCC2 [Darapladib] | 82.5 | > 100 | 85.8 | 96 | 0.433 | 66.6 | 77.8 | 12.3 | 93.5 | 4.94 | 84.7 | 95.9 | 83 | 83.1 | < 0 | 65.7 | 92.2 | 52.5 | 52.1 | 2.36
CCOC(=O)N1c2ccc(C(F)(F)F)cc2[C@@H](N(Cc2cc(C(F)(F)F)cc(C(F)(F)F)c2)C(=O)OC)C[C@H]1CC [Torcetrapib] | 98.5 | 86 | 97.7 | 87.1 | 75.8 | 49.2 | 62.1 | 78.5 | 44.5 | 38.2 | 97.2 | 84.4 | 99.7 | 99.7 | 80.2 | 84.7 | 51 | > 100 | 78.3 | 41.7
CC(Cc1ccc(O)c(O)c1)C(C)Cc1ccc(O)c(O)c1 (stereo not given) [Masoprocol] | 89 | 93.8 | 94.4 | 80.9 | 31.1 | 56.6 | 47.4 | 89.9 | 42.2 | > 100 | 98.7 | 89.8 | 90.3 | 87.7 | 68 | > 100 | 85.7 | 96.7 | 55.8 | 68.1
Clc1ccc(COC(Cn2ccnc2)c2ccc(Cl)cc2Cl)cc1 (stereo not given) [Econazole] | 84.3 | 92.6 | 98.3 | 89.4 | 68.7 | 70.3 | 85.8 | 73.5 | 34.5 | < 0 | 94.9 | 91.2 | 96.5 | 97.6 | 90 | 64.1 | 90.1 | 82.3 | 76.3 | 0.228
C[C@H]1O[C@@H](O[C@H]2[C@@H](O)C[C@H](O[C@H]3[C@@H](O)C[C@H](O[C@H]4CC[C@@]5(C)[C@H](CC[C@@H]6[C@@H]5C[C@@H](O)[C@]5(C)[C@@H](C7=CC(=O)OC7)CC[C@]65O)C4)O[C@@H]3C)O[C@@H]2C)C[C@H](O)[C@@H]1O [Digoxin] | 98.4 | 98.4 | 50.6 | 1.74 | 1.52 | 91.9 | 57.7 | 98.8 | 91.5 | > 100 | 99.2 | 96.8 | 82.8 | 26.6 | 3.27 | 82.1 | 90.3 | 69.7 | 18.9 | 13.5
